This is an account of results in patent US8993585B2, “Cyclic amine substituted pyrimidinediamines as PKC inhibitors” (Rigel Pharmaceuticals, Inc., priority 2007, dated 2015).

One test concerns the target T1, PKC theta (Homo sapiens, UniProt Q04759).
T1 construct: purchased Upstate Biotechnologies, Temecula, CA 14-444
As to the kind of experiment: PKC assay, fluorescence polarization (Example 2), PKC theta. The conditions noted are these: 5 μM ATP. The format is biochemical. In outline:
(§1)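 Phosphorylated peptide product detected by fluorescence polarization, with EDTA quench plus peptide tracer and antibody. Reaction in 20 mM HEPES pH 7.4, 5 mM MgCl2, 0.2 mM CaCl2, 1 mM DTT, 0.02% Brij-35, phosphatidylserine and dioleoyl-sn-glycerol, with 5 μM ATP and 5 μM peptide. Started with enzyme, 20 min at room temperature.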
In general terms: Polarisation of emitted light reports the rotation of a fluorescent probe.

Another test addresses T2, PKC epsilon (Homo sapiens, UniProt Q02156).
T2 construct: purchased Upstate Biotechnologies, Temecula, CA 14-518
T2 sequence (Q02156 1-737): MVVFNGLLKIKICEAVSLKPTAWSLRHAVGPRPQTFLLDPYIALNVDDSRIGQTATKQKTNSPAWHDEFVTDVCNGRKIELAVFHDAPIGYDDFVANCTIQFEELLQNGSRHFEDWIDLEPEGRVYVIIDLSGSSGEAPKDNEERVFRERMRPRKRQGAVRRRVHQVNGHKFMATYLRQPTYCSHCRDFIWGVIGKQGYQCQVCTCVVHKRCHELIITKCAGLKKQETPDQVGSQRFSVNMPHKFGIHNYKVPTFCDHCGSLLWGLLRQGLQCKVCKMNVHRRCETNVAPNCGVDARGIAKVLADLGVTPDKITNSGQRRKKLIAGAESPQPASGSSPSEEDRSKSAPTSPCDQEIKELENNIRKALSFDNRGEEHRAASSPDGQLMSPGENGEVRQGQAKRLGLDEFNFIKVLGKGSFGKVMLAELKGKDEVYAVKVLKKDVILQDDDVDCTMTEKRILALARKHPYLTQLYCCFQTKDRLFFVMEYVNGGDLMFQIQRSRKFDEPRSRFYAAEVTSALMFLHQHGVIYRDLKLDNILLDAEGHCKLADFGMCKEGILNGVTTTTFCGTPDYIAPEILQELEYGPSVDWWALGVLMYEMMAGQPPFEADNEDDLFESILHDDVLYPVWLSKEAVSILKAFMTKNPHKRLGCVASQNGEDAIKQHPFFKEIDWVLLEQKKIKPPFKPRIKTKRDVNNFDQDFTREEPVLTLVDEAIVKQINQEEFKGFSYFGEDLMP
The experiment in a line: PKC assay, fluorescence polarization (Example 2), PKC epsilon. The class given is biochemical. The conditions noted are these: 5 μM ATP. In outline: as §1

For the next test, the system named is Human primary T cells. The experiment in a line: IL-2 ELISA, Human Primary T Cell, Anti-CD3+CD28+ (Example 3). The format is cell-based. The conditions noted are these: anti-CD3+CD28 stimulation. The method, boiled down:
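IL-2 was read by ELISA after stimulation on wells pre-coated with 1 ug/ml αCD3 and 5 μg/ml αCD28. Before this, 100,000 human primary T cells per well spent 1 h at 37 °C with test compound in Yssel's medium. The counter-screen replaced antibody stimulation with PMA (0.5 ng/ml final) and ionomycin (0.1 uM final).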
A general note: An ELISA detects its analyte on a solid surface through an enzyme-linked reagent.

A further test concerns the target T3, PKC mu (Homo sapiens, UniProt Q15139).
T3 sequence (Q15139 1-912): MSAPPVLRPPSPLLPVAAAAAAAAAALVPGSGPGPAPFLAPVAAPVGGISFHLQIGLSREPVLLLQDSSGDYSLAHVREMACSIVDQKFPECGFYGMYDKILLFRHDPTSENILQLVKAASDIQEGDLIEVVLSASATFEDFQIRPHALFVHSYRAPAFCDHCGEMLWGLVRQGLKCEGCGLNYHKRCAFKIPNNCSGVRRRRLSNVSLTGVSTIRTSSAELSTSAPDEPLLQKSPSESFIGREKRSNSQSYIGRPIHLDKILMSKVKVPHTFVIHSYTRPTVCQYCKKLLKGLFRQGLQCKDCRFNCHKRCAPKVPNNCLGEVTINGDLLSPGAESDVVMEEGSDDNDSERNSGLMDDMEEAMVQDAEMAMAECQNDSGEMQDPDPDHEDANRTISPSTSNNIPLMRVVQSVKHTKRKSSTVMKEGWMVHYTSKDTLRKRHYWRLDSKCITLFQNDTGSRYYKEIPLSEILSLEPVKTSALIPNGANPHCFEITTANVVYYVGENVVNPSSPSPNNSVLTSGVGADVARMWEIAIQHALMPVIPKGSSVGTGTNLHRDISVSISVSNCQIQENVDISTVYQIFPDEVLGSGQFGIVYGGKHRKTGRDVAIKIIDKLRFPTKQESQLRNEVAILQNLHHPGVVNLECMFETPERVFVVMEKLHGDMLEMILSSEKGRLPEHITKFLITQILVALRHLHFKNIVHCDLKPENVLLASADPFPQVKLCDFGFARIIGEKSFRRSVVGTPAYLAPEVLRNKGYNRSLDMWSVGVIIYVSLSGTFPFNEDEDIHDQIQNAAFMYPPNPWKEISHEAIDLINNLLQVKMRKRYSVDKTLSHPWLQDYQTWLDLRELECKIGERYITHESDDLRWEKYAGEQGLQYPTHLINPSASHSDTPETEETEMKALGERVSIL
As to the kind of experiment: PKC assay, fluorescence polarization (Example 2), PKC mu. The conditions noted are these: 5 μM ATP. The format is biochemical. How it is done:
The inhibition of PKC activity was measured by monitoring the production of phosphorylated peptide by fluorescence polarization at different concentrations of the inhibitor. Reactions were carried out in 96-well plate format with a total volume of 20 μL containing 20 mM HEPES, pH 7.4, 5 mM MgCl2, 0.2 mM CaCl2, 1 mM DTT, 0.02% Brij-35, 0.1 mg/mL phosphatidylserine, 0.02 mg/mL dioleoyl-sn-glycerol and 5 μM each of ATP and the peptide substrate. Compounds were first diluted serially in DMSO and then transferred to a solution containing the above concentrations of HEPES, MgCl2, CaCl2, DTT, and Brij-35 to yield 5× compound solutions in 2% DMSO, which was then added to the reaction solution. Reactions were initiated by the addition of PKC at a typical concentration as described in Table VI, and then allowed to incubate at room temperature for 20 min. At the end of this time, a combination of quench (EDTA) and detection (peptide tracer and antibody) reagents was added using the protocol of Invitrogen P2748. After a 30 min. period of incubation, the amount of phosphorylated peptide generated was measured by fluorescence polarization (Ex=485 nm, Em=535 nm) using a Tecan Polarian instrument.

T1 sequence (Q04759 whole entry): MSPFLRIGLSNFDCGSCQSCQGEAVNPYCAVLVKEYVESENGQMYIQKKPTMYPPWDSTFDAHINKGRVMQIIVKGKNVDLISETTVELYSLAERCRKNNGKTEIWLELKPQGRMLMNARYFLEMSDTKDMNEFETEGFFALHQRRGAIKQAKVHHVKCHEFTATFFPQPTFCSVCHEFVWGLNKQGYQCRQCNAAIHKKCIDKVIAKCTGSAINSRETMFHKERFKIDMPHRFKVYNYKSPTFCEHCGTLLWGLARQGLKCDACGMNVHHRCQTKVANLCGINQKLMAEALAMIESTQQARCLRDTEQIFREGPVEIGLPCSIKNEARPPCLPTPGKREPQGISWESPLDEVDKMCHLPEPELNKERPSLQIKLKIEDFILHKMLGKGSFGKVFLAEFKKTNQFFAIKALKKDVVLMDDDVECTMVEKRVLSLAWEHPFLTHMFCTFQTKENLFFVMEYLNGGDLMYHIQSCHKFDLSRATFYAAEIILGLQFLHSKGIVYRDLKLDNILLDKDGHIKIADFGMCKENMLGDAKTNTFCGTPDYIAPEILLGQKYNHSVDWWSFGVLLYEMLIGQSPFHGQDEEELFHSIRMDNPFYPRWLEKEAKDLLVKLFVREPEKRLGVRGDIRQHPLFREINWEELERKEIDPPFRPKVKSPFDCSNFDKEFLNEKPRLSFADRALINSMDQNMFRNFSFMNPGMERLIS

In general, IC50 refers to the concentration that inhibits the measured activity by half. In the case of `CN1CCN(c2ccc(Nc3ncc(C(F)(F)F)c(NC4CC(C)(C)N(C)C(C)(C)C4)n3)cc2C(F)(F)F)CC1` [Compound I-38], the IC50 at PKC theta turned out to be 16 nM; at PKC epsilon it was 506 nM; with Human primary T cells (Homo sapiens, T-cell, 24 h), 196 nM; on PKC mu, 33 nM.

As for `Cc1ccc(Nc2ncc(F)c(NC3CC(C)(C)N(C)C(C)(C)C3)n2)cc1-c1cccnc1` [Compound I-197], the IC50 on PKC theta was determined as 4.38 nM; at PKC epsilon it was 60.3 nM; in the test on Human primary T cells (24 hours), 237 nM.

Take `COc1cc(Nc2ncc(Cl)c(NC3CC(C)(C)N(C)C(C)(C)C3)n2)cc(OC)c1` [Compound I-340]: the IC50 is 2.81 nM at PKC theta; 15.6 nM at PKC epsilon; 159 nM with Human primary T cells (Homo sapiens, T-cell, 24 h).

As to `CN1C(C)(C)CC(Nc2nc(Nc3ccc(-c4ccncc4)c(C(F)(F)F)c3)ncc2F)CC1(C)C` [Compound I-96], the 50% inhibitory concentration (IC50) is 4.56 nM on PKC theta; 81.7 nM at PKC epsilon; 177 nM with Human primary T cells (Homo sapiens, T-cell, 24 h).

As to `CC1(C)CC(Nc2nc(Nc3ccc4c(c3)OCC(=O)N4CCF)ncc2C#N)CC(C)(C)N1` [II-171], the IC50 on PKC theta worked out at 2.4 nM; at PKC epsilon it was 775 nM; with Human primary T cells (Homo sapiens, T-cell, 24 h), 260 nM.

In the case of `CN1C(C)(C)CC(Nc2nc(Nc3ccc(N4CCOCC4)c(C(F)(F)F)c3)ncc2F)CC1(C)C` [Compound I-224], the IC50 on PKC theta was found to be 29.1 nM; at PKC epsilon, 19 nM; in the test with Human primary T cells (Homo sapiens, T-cell, 24 h), 112 nM.

Take `CCCN1CCN(c2cc(Nc3ncc(F)c(NC4CC(C)(C)N(C)C(C)(C)C4)n3)ccc2C(F)(F)F)CC1` [Compound I-218]: the IC50 was 6.52 nM on PKC theta; 18.4 nM at PKC epsilon; 216 nM with Human primary T cells (Homo sapiens, T-cell, 24 h).

On to `COc1cc(Nc2ncc(C(F)(F)F)c(NC3CC(C)(C)N(C)C(C)(C)C3)n2)cc(OC)c1` [Compound I-363], for which the IC50 at PKC theta was 4.17 nM; on PKC epsilon, 54.8 nM; with Human primary T cells (Homo sapiens, T-cell, 24 h) it was 233 nM.

For the compound `CN1C(C)(C)CC(Nc2nc(Nc3ccc(-c4cccnc4)c(C(F)(F)F)c3)ncc2F)CC1(C)C` [Compound I-112], the IC50 on PKC theta is 8.91 nM; on PKC epsilon, 25.6 nM; in the test on Human primary T cells (Homo sapiens, T-cell, 24 h) it was 73.3 nM.

As to `Cc1cc(Nc2ncc(F)c(NC3CC(C)(C)N(C)C(C)(C)C3)n2)ccc1-c1cccnc1` [Compound I-121], the IC50 at PKC theta was 23.7 nM; at PKC epsilon it was 15.8 nM; with Human primary T cells (Homo sapiens, T-cell, 24 h), 268 nM.
